The values that follow come from publication PMC3391563 (2011).

Test [1] addresses T1, Af-OMO (ornithine monooxygenase, SidA) (Aspergillus fumigatus, UniProt E9QYP0). Briefly: stopped-flow UV/vis, concentration dependence of kobs for FAD-OOH formation. Type of test: biochemical.
Test [2] addresses T1, Af-OMO (ornithine monooxygenase, SidA). The description is as above. Type of test: biochemical. This is another data set of the same source.
Test [3] has the same target.
For test [4] the target is unchanged. Kind of test: stopped-flow UV/vis, concentration dependence of kobs. Type of test: biochemical.
Test [5] has the same target. Kind of test: stopped-flow. Type of test: biochemical.
For test [6] the target is unchanged. Briefly: hydroxylation coupling ratio. Type of test: biochemical.
For test [7] the target is unchanged. Briefly: stopped-flow UV/vis, concentration dependence of kobs. Type of test: biochemical. This is another data set of the same source.

Where two headings read alike, the source gives them in different places.

T1 sequence (E9QYP0 whole entry): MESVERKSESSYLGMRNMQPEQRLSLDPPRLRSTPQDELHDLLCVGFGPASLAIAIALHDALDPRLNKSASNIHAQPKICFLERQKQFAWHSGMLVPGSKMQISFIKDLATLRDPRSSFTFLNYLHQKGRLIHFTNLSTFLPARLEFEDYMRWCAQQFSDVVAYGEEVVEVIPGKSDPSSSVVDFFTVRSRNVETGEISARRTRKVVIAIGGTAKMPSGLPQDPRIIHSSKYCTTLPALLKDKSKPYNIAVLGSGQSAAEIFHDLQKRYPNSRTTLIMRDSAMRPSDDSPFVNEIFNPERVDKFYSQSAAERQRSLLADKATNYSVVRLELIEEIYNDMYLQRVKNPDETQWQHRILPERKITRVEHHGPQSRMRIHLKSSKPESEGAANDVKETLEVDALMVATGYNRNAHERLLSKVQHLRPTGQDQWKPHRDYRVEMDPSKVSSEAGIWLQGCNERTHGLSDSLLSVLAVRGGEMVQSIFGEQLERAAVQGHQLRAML

For the molecule `N=C(N)NCCC[C@H](N)C(=O)O` [L-Arg, L-arginine], the equilibrium dissociation constant (Kd) (usually the free concentration of one partner at which half of the binding sites on the other are occupied at equilibrium, for simple one-to-one binding) in test [1] is 620 ± 70 µM.

Molecule `NC(=O)NCCC[C@H](N)C(=O)O` [L-Citr, L-citrulline] gave a Kd in test [2] of 4400 ± 900 µM.

In the case of `NCCCCN` [DAB, 1,4-diaminobutane], the “compd-OH: NADPH ^c” value in test [3] is listed as 0.59 (0.02).

As for `NCCC[C@H](N)C(=O)O` [L-Orn, L-ornithine], in test [4], the Kd worked out at 310 ± 40 µM.

In the case of `N[C@@H](CCCNO)C(=O)O` [L-Orn-N^εOH, N^ε-hydroxy-L-ornithine], the “kFAD (s^-1)” value in test [5] is 0.34 (0.01) s^-1.

`NCCC[C@@H](N)C(=O)O` [D-Orn, D-ornithine]: the “compd-OH: NADPH ^c” value in test [6] is given as 0.63 (0.03).

Consider `NCCCC[C@H](N)C(=O)O` [L-Lys, L-lysine], for which the Kd in test [7] turned out to be 130 ± 30 µM.
